# Source: US8383125B2, “Antimicrobial protein” (Agriculture Victoria Services Pty, Limited, priority 2006, dated 2013)
# Like-named read-outs stand apart in the source and are kept apart here. Where no end group is shown, it is not given here.
# Tests used:
# [1] = test system: A. baumannii strain FADDI 006; format: cell-based, Acinetobacter baumannii; details: strain FADDI 006, 17 h
# Protocol: (§1) The MIC values of SEQ ID NO: 2 and SEQ ID NO: 19 were also determined against a range of multidrug-resistant isolates, including clinical and laboratory strains. Peptides, maintained at −20° C. in solid form for storage purposes, were subsequently dissolved in 0.01% (v/v) acetic acid (Sigma-Aldrich) to a stock concentration of […]. The stock solutions were made fresh for each experiment. Eighteen (18) bacterial isolates obtained from the Facility for Anti-Infective Drug Development and Innovation, Victoria, Australia (FADDI) as listed in Table 2 were maintained as stock cultures in Tryptic Soya Broth plus 20% (v/v) glycerol at a temperature of −80° C., and subcultured onto Nutrient Agar for each experiment. MIC values were determined in cation-adjusted Mueller-Hinton broth (CAMHB) and Mueller-Hinton broth (MHB) using standard broth micro-dilution methods.
# [2] = test system: A. baumannii strain FADDI 007; format: cell-based, Acinetobacter baumannii; details: strain FADDI 007, 17 h
# Protocol: as §1
# E. coli DH5α = details: 5 μl of 250 μg/ml solutions of each peptide; E. coli
# Protocol: Briefly, approximately 4×10^6 of mid-logarithmic-phase organisms were grown on plates in 11 ml of warm 0.8% agarose containing 0.03% (w/v) Tryticase soy broth (TSB) powder, with or without 100 mM NaCl, buffered with 10 mM sodium phosphate, pH 7.4. The test peptide was serially diluted in acidified water (0.01% acetic acid), and 5 μl of diluted peptide sample was loaded in a 2.5 diameter well in the agarose. A 10 ml overlay gel composed of 6% TSB, 0.8% agarose and 10 mM sodium phosphate buffer (pH 7.4) was poured into each well. Plates were then incubated overnight to allow the surviving organisms to form microcolonies. The clear zone were measured to the nearest 0.1 mm using a magnified transilluminator and expressed in units (1 mm=10 U) after subtracting the well diameter. The minimum inhibitory concentration (MIC) is defined by the χ intercept of a regression line through zone diameters obtained from a series of serially diluted peptide samples.
# [3] = test system: Streptococcus equi equi (ATCC 9527); format: cell-based; details: Table 1
# [4] = test system: P. aeruginosa strain FADDI 004; format: cell-based, Pseudomonas aeruginosa; details: strain FADDI 004, 17 h
# Protocol: as §1
# [5] = test system: P. aeruginosa strain FADDI 003; format: cell-based, Pseudomonas aeruginosa; details: strain FADDI 003, 17 h
# Protocol: as §1
# [6] = test system: P. aeruginosa strain FADDI 002; format: cell-based, Pseudomonas aeruginosa; details: strain FADDI 002, 17 h
# Protocol: as §1
# [7] = test system: P. aeruginosa strain FADDI 001; format: cell-based, Pseudomonas aeruginosa; details: strain FADDI 001, 17 h
# Protocol: as §1
# [8] = test system: Enterococcus faecium (ATCC 700221); format: cell-based; details: ATCC 700221, 17 h
# Protocol: as §1
# [9] = test system: Staphylococcus aureus (ATCC 700698); format: cell-based; details: ATCC 700698, 17 h
# Protocol: as §1
# [10] = test system: A. baumannii strain FADDI 005 (ATCC 19606 derivative); format: cell-based, Acinetobacter baumannii; details: 17 hr at 35° C.
# Protocol: as §1
# Pseudomonas aeruginosa (ATCC 27853) and S. aureus (ATCC 43300) were included as quality controls in experiments. P. aeruginosa strains FADDI 001 and FADDI 002 are mucoid; and P. aeruginosa strains FADDI 003 and FADDI 004 are non-mucoid. P. aeruginosa strain FADDI 003 also has a small colony morphology. The A. baumannii strain FADDI 005 is a colistin-resistant isolate obtained from Mueller-Hinton agar containing 10 mg/L colistin.
# S. aureus (ATCC 43300) = format: cell-based, Staphylococcus aureus; details: ATCC 43300, 17 h
# Protocol: as §1
# S. aureus 700699 = format: cell-based, Staphylococcus aureus; details: 700699, 17 h
# Protocol: as §1
# [11] = test system: S. aureus strain FADDI 011; format: cell-based, Staphylococcus aureus; details: strain FADDI 011, 17 h
# Protocol: as §1
# Bacillus subtilis = format: cell-based; details: Table 1
# [12] = test system: tammar wallaby erythrocytes; format: cell-based
# Protocol: The toxicity of the antimicrobial peptides was determined using a haemolytic assay. In particular, the hemolytic activity of the peptides was determined using tammar wallaby erythrocytes. Fresh erythrocytes were harvested from heparinized blood taken from a tammar wallaby. Erythrocytes were harvested by centrifugation for 3 min at 3000 g. Erythrocytes were then washed three times with PBS (pH 7.4) until the supernatant was essentially colourless. 20 μl two fold serial dilutions of the peptide were mixed with the same volume of erythrocytes in solution 2%) in PBS of each well of a 96-plate. 80 μl PBS was added to each well after the plate was incubated at 37° C. for one hour. Plates were then centrifuged at 3000 g for 5 min. 90 μl of the resulting supernatant was transferred to a flat-bottom microtiter plate and haemoglobin release was monitored by measuring the absorbance at 414 nm with an ELISA plate reader. […] Each sample was performed in triplicate. Percentage hemolysis was calculated by the following formula: [(OD414 peptide−OD414 buffer)/OD414 complete hemolysis−OD414 buffer)]×100%.
# [13] = test system: K. pneumoniae strain FADDI 009; format: cell-based, Klebsiella pneumoniae; details: strain FADDI 009, 17 h
# Protocol: as §1
# [14] = test system: K. pneumoniae strain FADDI 010; format: cell-based, Klebsiella pneumoniae; details: strain FADDI 010, 17 h
# Protocol: as §1
# [15] = test system: K. pneumoniae strain FADDI 008; format: cell-based, Klebsiella pneumoniae; details: strain FADDI 008, 17 h
# Protocol: as §1
# [16] = test system: Candida albicans (ATCC 753); format: cell-based; details: Table 1
substance,measurement,setting,value
KRGLWESLKRKATKLGDDIRNTLRNFKIKFPVPRQ-NH2 [SEQ ID NO: 19],MIC,[1],>64 µg/mL
same,MIC,[2],16 µg/mL
same,radial clear zone compared to LL-37 (FIG. 3),E. coli DH5α,larger radial clear zone
same,antimicrobial activity in words,[3],moderately protective
same,MIC,[4],>64 µg/mL
same,MIC,[5],>64 µg/mL
same,MIC,[6],>64 µg/mL
same,MIC,[7],>64 µg/mL
same,MIC,[8],16 µg/mL
same,MIC,[9],>64 µg/mL
same,MIC,[10]; CAMHB (10.0 mg/L Mg2+ and 24 mg/L Ca2+),8 µg/mL
same,MIC,[10]; MHB (less than 5 mg/L Mg2+ and 24 mg/L Ca2+),16 µg/mL
same,MIC,S. aureus (ATCC 43300),>64 µg/mL
same,MIC,S. aureus 700699,>64 µg/mL
same,MIC,[11],>64 µg/mL
same,antimicrobial activity in words,Bacillus subtilis,moderately protective
same,haemolysis at the MIC determined in Example 1,[12],less than 5%
same,haemolysis at the majority of concentrations tested (FIGS. 2a and 2b),[12],did not cause substantial levels of haemolysis
same,MIC,[13],>64 µg/mL
same,MIC,[14],>64 µg/mL
same,MIC,[15],>64 µg/mL
same,antimicrobial activity in words,[16],Weaker antimicrobial activity
